Measured values taken from patent US20240277246A1, “MANGANESE-ENHANCED MAGNETIC RESONANCE IMAGING” (IC Targets AS, priority 2021, published 2024).
Like-named read-outs stand apart in the source and are kept apart here.

Legend:
[1] = corresponds to end of infusion
Experimental: A midventricular short axis view was used and a region of interest in the left ventricle myocardium and a region of interest in the blood in the ventricular cavity were used for measurements. […] The total infusion time was 7.5 minutes. T1 mapping MRI was performed every 2.5 minutes for a total of 40 minutes to collect data for kinetic analysis.
After the examination, the myocardial T1 values were converted to changes in relaxation rates from the baseline values according to equation 12. The heamocrit for the subject was measured to 0.41 and the plasma T1 values were converted to changes in relaxation rates according to equation 13.
A midventricular short axis view was used in each patient and a region of interest in the left ventricle myocardium and a region of interest in the blood in the ventricular cavity was used for measurements. […] The total infusion time was 7.5 minutes. T1 mapping MRI was performed every 2.5 minutes for a total of 40 minutes to collect data for kinetic analysis.
After the examinations, the myocardial T1 values were converted to changes in relaxation rates from the baseline values according to equation 12. The average heamocrit for the 5 subjects was measured to 0.416 and the plasma T1 values were converted to changes in relaxation rates according to equation 13.

[2] = system: cardiomyocytes (left ventricle myocardium; uptake via L-type calcium channels); assay: Manganese-enhanced T1 mapping MRI, kinetic analysis of cardiomyocyte cellular manganese uptake after MnDPDP infusion; format: in vivo, human
Experimental: A midventricular short axis view was used and a region of interest in the left ventricle myocardium and a region of interest in the blood in the ventricular cavity was used for measurements. […] The total infusion time was 7.5 minutes. T1 mapping MRI was performed every 2.5 minutes for a total of 40 minutes to collect data for kinetic analysis.
After the examination, the myocardial T1 values were converted to changes in relaxation rates from the baseline values according to equation 12. The heamocrit for the subject was measured to 0.44 and the plasma T1 values were converted to changes in relaxation rates according to equation 13.
This is what would be expected from the loss of cells without a loss of individual cell function. Thus, by applying the prior art method, it would therefore wrongly be concluded that the cellular manganese flux rate was reduced.
The rate constant for cardiomyocyte intracellular relaxivity increase Kcell^ΔR1, and thus the cardiomyocyte cellular manganese uptake rate Kcell^Mn, was calculated according to the invention, applying equation 20 where the constant KECF was set equal to 1. The Kcell^Mn value was 0.0650 min^−1. The data used to calculate the rate constant is shown graphically in FIG. 8 (“ict”), corresponding to a straight line with slope=Kcell^Mn=0.0650 min^−1 and intercept=ECV=0.35. […]
If the ECF was in equilibrium with plasma, the slope would be the ECV=0.322. However, due to the uptake of manganese into the cardiomyocytes, the ECF is in dynamic equilibrium with plasma with a manganese concentration ratio of
Assuming that the rate constant for diffusion between plasma and the ECF is the same in both directions, K1=K2 and K3/K1=1/KECF−1=1/0.72−1=0.40.
When the ratio between the manganese concentration in the ECF and plasma can be estimated, the apparent cellular rate constant Kcell^Mn*KECF can be converted to the actual cellular uptake rate constant Kcell^Mn by division with KECF.

time at which plasma ΔR1 is highest ([1]; healthy volunteer): 7.5 min
Structure (SMILES): Cc1ncc(COP(=O)(O)O)c(CN(CCN(CC(=O)[O-])Cc2c(COP(=O)(O)O)cnc(C)c2O)CC(=O)[O-])c1O.[Mn+2] [MnDPDP, manganese (II) N,N′-dipyridoxyl-ethylenediamine-N,N′-diacetate-5,5′-bis(phosphate)]
time at which plasma ΔR1 is highest ([1]; average of 5 patients with hypertrophic cardiomyopathia): 7.5 min
time at which plasma ΔR1 is highest ([1]; patient with dilated cardiomyopathia): 7.5 min
cardiomyocyte cellular manganese uptake rate Kcell^Mn (corrected by division with KECF) ([2]; average of 5 patients with hypertrophic cardiomyopathia, KECF 0.72): 0.096
apparent cellular rate constant Kcell^Mn*KECF ([2]; average of 5 patients with hypertrophic cardiomyopathia, linear regression without restrictions to the intercept): 0.0691
slope of the Patlak line (prior art method) ([2]; healthy volunteer, 5 μmol/kg infusion over 7.5 min): 0.0484 min⁻¹
cardiomyocyte cellular manganese uptake rate Kcell^Mn ([2]; healthy volunteer, 5 μmol/kg infusion over 7.5 min, equation 20, KECF set to 1, forced intercept ECV 0.25): 0.0591 min⁻¹
uptake rate constant by the Patlak method of prior art ([2]; patient with dilated cardiomyopathia, 5 μmol/kg infusion over 7.5 min): 0.0429
cardiomyocyte cellular manganese uptake rate Kcell^Mn ([2]; patient with dilated cardiomyopathia, 5 μmol/kg infusion over 7.5 min, equation 20, KECF set to 1, forced intercept ECV 0.35): 0.0650 min⁻¹
